{"source": "patent US10975080B2", "about": "“Compounds and compositions for inhibiting the activity of SHP2” (NOVARTIS AG, priority 2015, dated 2021)"}
{"target": "SHP2 (Homo sapiens (Human), UniProt Q06124)", "sequence (Q06124 whole entry)": "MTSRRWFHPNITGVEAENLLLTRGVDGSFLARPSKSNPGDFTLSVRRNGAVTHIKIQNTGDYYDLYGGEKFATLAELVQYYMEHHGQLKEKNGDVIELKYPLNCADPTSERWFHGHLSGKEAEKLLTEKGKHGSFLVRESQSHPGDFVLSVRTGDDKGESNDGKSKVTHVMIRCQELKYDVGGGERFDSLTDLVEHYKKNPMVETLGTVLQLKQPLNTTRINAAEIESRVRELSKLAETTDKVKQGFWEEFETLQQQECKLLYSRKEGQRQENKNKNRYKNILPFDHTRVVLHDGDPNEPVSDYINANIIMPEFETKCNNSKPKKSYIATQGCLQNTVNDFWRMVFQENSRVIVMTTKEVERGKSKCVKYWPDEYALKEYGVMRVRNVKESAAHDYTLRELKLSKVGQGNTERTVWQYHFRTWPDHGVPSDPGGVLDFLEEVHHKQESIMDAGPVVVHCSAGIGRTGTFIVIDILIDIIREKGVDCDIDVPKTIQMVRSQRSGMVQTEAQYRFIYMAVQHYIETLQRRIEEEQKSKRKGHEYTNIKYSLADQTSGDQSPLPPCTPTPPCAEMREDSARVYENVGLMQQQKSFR", "assay": "SHP2 Allosteric Inhibition Assay", "type": "biochemical", "settings": "0.5 nM SHP2 with 0.5 μM peptide IRS1_pY1172(dPEG8)pY1222; surrogate substrate DiFMUP; 25° C.; read-out: IC50", "in_short": "(§1)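 Phosphatase activity of bis-tyrosyl-phosphopeptide-activated SHP2 was read by prompt fluorescence from DiFMUP turnover. After 30–60 min preincubation at 25 °C, DiFMUP was added for 30 min at 25 °C. IC50s came from control-normalized dose-response fitting.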", "units": {"IC50": "µM"}}
{"smiles": "CC1(CN)CCN(c2nc3[nH]cc(-c4cccc(Cl)c4Cl)c3c(=O)[nH]2)CC1", "note": "[Example 3, 2-(4-(aminomethyl)-4-methylpiperidin-1-yl)-5-(2,3-dichlorophenyl)-3,7-dihydro-4H-pyrrolo[2,3-d]pyrimidin-4-one]", "IC50": 0.062}
{"smiles": "C[C@@H]1OCC2(CCN(c3nc4[nH]nc(-c5ccnc(N)c5Cl)c4c(=O)n3C)CC2)[C@@H]1N", "note": "[Example 8, 3-(2-amino-3-chloropyridin-4-yl)-6-((3S,4S)-4-amino-3-methyl-2-oxa-8-azaspiro[4.5]decan-8-yl)-5-methyl-2,5-dihydro-4H-pyrazolo[3,4-d]pyrimidin-4-one]", "IC50": 0.036}
{"target": "SHP2 (Homo sapiens (Human), UniProt Q06124)", "assay": "SHP2 Allosteric Inhibition Assay", "type": "biochemical", "settings": "0.5 nM SHP2 with 0.5 μM peptide IRS1_pY1172(dPEG8)pY1222; surrogate substrate DiFMUP; 25° C.; read-out: SHP2 IC50", "in_short": "as §1", "units": {"IC50": "µM"}}
{"smiles": "C[C@@H]1OCC2(CCN(c3nc4[nH]nc(-c5cc(Cl)ncc5Cl)c4c(=O)n3C)CC2)[C@@H]1N", "note": "[Example 79, 6-((3S,4S)-4-amino-3-methyl-2-oxa-8-azaspiro[4.5]decan-8-yl)-3-(2,5-dichloropyridin-4-yl)-5-methyl-1,5-dihydro-4H-pyrazolo[3,4-d]pyrimidin-4-one]", "IC50": 0.03}
{"smiles": "C[C@@H]1OCC2(CCN(c3cnc4c(-c5ccnc(Cl)c5Cl)n[nH]c4n3)CC2)[C@@H]1N", "note": "[Example 85, (3S,4S)-8-(3-(2,3-dichloropyridin-4-yl)-1H-pyrazolo[3,4-b]pyrazin-6-yl)-3-methyl-2-oxa-8-azaspiro[4.5]decan-4-amine]", "IC50": 0.067}
{"smiles": "Cc1c(-c2n[nH]c3nc(N4CCC5(CC4)CO[C@@H](C)[C@H]5N)n(C)c(=O)c23)ccnc1Cl", "note": "[Example 78, 6-((3S,4S)-4-amino-3-methyl-2-oxa-8-azaspiro[4.5]decan-8-yl)-3-(2-chloro-3-methylpyridin-4-yl)-5-methyl-1,5-dihydro-4H-pyrazolo[3,4-d]pyrimidin-4-one]", "IC50": 0.017}
{"smiles": "CCNc1nccc(-c2n[nH]c3nc(N4CCC5(CC4)CO[C@@H](C)[C@H]5N)n(C)c(=O)c23)c1Cl", "note": "[Example 72, 6-((3S,4S)-4-amino-3-methyl-2-oxa-8-azaspiro[4.5]decan-8-yl)-3-(3-chloro-2-(ethylamino)pyridin-4-yl)-5-methyl-1,5-dihydro-4H-pyrazolo[3,4-d]pyrimidin-4-one]", "IC50": 0.047}
{"smiles": "C[C@@H]1OCC2(CCN(c3nc4[nH]nc(-c5ccc6c(c5)CCO6)c4c(=O)n3C)CC2)[C@@H]1N", "note": "[Example 56, 6-((3S,4S)-4-amino-3-methyl-2-oxa-8-azaspiro[4.5]decan-8-yl)-3-(2,3-dihydrobenzofuran-5-yl)-5-methyl-1,5-dihydro-4H-pyrazolo[3,4-d]pyrimidin-4-one]", "IC50": 0.095}
{"smiles": "C[C@@H]1OCC2(CCN(c3nc4[nH]nc(-c5ccnc(N)c5)c4c(=O)n3C)CC2)[C@@H]1N", "note": "[Example 45, 6-((3S,4S)-4-amino-3-methyl-2-oxa-8-azaspiro[4.5]decan-8-yl)-3-(2-aminopyridin-4-yl)-5-methyl-1,5-dihydro-4H-pyrazolo[3,4-d]pyrimidin-4-one]", "IC50": 0.037}
{"smiles": "C[C@@H]1OCC2(CCN(c3nc4[nH]nc(-c5cc(N)ncc5Cl)c4c(=O)n3C)CC2)[C@@H]1N", "note": "[Example 80, 6-((3S,4S)-4-amino-3-methyl-2-oxa-8-azaspiro[4.5]decan-8-yl)-3-(2-amino-5-chloropyridin-4-yl)-5-methyl-1,5-dihydro-4H-pyrazolo[3,4-d]pyrimidin-4-one]", "IC50": 0.129}
{"smiles": "CNc1nccc(-c2n[nH]c3nc(N4CCC5(CC4)CO[C@@H](C)[C@H]5N)n(C)c(=O)c23)c1Br", "note": "[Example 35, 6-((3S,4S)-4-amino-3-methyl-2-oxa-8-azaspiro[4.5]decan-8-yl)-3-(3-bromo-2(methylamino)pyridin-4-yl)-5-methyl-1,5-dihydro-4H-pyrazolo[3,4-d]pyrimidin-4-one]", "IC50": 0.034}
{"smiles": "Cn1c(N2CCC3(CC2)CC(F)(F)C[C@H]3N)nc2[nH]nc(-c3ccncc3)c2c1=O", "note": "[Example 51, (R)-6-(1-amino-3,3-difluoro-8-azaspiro[4.5]decan-8-yl)-5-methyl-3-(pyridin-4-yl)-1,5-dihydro-4H-pyrazolo[3,4-d]pyrimidin-4-one]", "IC50": 0.014}
{"smiles": "C[C@@H]1OCC2(CCN(c3nc4[nH]nc(-c5ccnc(N6CCOCC6)c5Cl)c4c(=O)n3C)CC2)[C@@H]1N", "note": "[Example 30, 6-((3S,4S)-4-amino-3-methyl-2-oxa-8-azaspiro[4.5]decan-8-yl)-3-(3-chloro-2-morpholinopyridin-4-yl)-5-methyl-1,5-dihydro-4H-pyrazolo[3,4-d]pyrimidin-4-one]", "IC50": 0.103}
{"smiles": "C[C@@H]1OCC2(CCN(c3nc4[nH]nc(-c5ccnc(NCC6CC6)c5Cl)c4c(=O)n3C)CC2)[C@@H]1N", "note": "[Example 74, 6-((3S,4S)-4-amino-3-methyl-2-oxa-8-azaspiro[4.5]decan-8-yl)-3-(3-chloro-2-((cyclopropylmethyl)amino)pyridin-4-yl)-5-methyl-1,5-dihydro-4H-pyrazolo[3,4-d]pyrimidin-4-one]", "IC50": 0.039}
{"smiles": "Cn1c(N2CCC3(CC2)C[C@@H](C(F)(F)F)C[C@H]3N)nc2[nH]nc(-c3ccncc3)c2c1=O", "note": "[Example 54, 6-((1R,3R)-1-amino-3-(trifluoromethyl)-8-azaspiro[4.5]decan-8-yl)-5-methyl-3-(pyridin-4-yl)-1,5-dihydro-4H-pyrazolo[3,4-d]pyrimidin-4-one]", "IC50": 0.021}
{"smiles": "Cc1ncccc1-c1n[nH]c2nc(N3CCC4(CC3)CO[C@@H](C)[C@H]4N)n(C)c(=O)c12", "note": "[Example 67, 6-((3S,4S)-4-amino-3-methyl-2-oxa-8-azaspiro[4.5]decan-8-yl)-5-methyl-3-(2-methylpyridin-3-yl)-1,5-dihydro-4H-pyrazolo[3,4-d]pyrimidin-4-one]", "IC50": 0.096}
{"smiles": "Cn1c(N2CCC(C)(CN)CC2)nc2[nH]nc(-c3cccc(C(F)(F)F)c3Cl)c2c1=O", "note": "[Example 26, 6-(4-(aminomethyl)-4-methylpiperidin-1-yl)-3-(2-chloro-3-(trifluoromethyl)phenyl)-5-methyl-1,5-dihydro-4H-pyrazolo[3,4-d]pyrimidin-4-one]", "IC50": 0.127}
